Paper PMC9784969, “SARS-CoV-2 Inhibitors Identified by Phenotypic Analysis of a Collection of Viral RNA-Binding Molecules” (Pharmaceuticals, 2022)
Where two headings read alike, the source gives them in different places.

Experiments:
3_S2m RNA = experiment: RNA-based 1H NMR (TOCSY) titration; assay type: binding, SARS-CoV-2; details: RNA:ligand up to 1:4
Experimental: The RNA samples were previously diafiltrated into an aqueous solution containing 25 mM potassium phosphate (pH 6.2), 50 mM KCl and 0.1 mM EDTA, and the titration experiments were carried out at 27 °C using 50 μM RNA samples in 100% D2O. The 3_S2m titrations were duplicated at 25 °C using 120 μM RNA samples and additionally acquiring NOESY spectra (250 ms mixing time) at 1:0 and 1:4 ratios. For this system, the chemical shift perturbation analyses included 63 H1’, H2’, and aromatic 3_S2m resonances. The isolated 3_S2m hairpin was studied at two different temperatures (25 and 35 °C) using 120 and 500 μM RNA samples and similar TOCSY and NOESY (120 and 250 ms mixing times) experiments. […] The relaxation delay for NOESY and TOCSY acquisition was 2 and 1.5 s, respectively.

in vitro = details: human, uninfected 293T-ACE2 cells
5_SL2+3 RNA = experiment: ligand-based 1H NMR (1D, CPMG, wLOGSY); assay type: binding, SARS-CoV-2
SARS-CoV-2 USA-WA1/2020 = experiment: microbe, parasite or virus in culture; assay type: cell-based; details: Severe acute respiratory syndrome coronavirus 2, Vero C1008, 48 h, Vero E6 cells, MOI 0.025, two days; read-out: SARS-CoV-2 EC50
3_SL1+2 RNA = assay type: binding
ORF7b RNA = experiment: ligand-based 1H NMR (1D, CPMG, wLOGSY); assay type: binding, SARS-CoV-2
[1] = average of aliphatic protons, RNA:ligand 1:100 (clomiphene) or 1:50 (trim, qz2)
[2] = average of aromatic protons, RNA:ligand 1:100 (clomiphene) or 1:50 (trim, qz2)

SMILES: CC(C)CCN1CCC(CNc2nc3ccccc3c(=O)[nH]2)CC1 [qz2]
- RNA chemical shift perturbations (3_S2m RNA): smaller perturbations
- CC50 at 2 days (in vitro): > 6.6 µM
- CPMG variation (5_SL2+3 RNA; [1]): -3.85%
- LB (5_SL2+3 RNA; [1]): -0.01%
- LOGSY factor (5_SL2+3 RNA; [1]): 2.85%
- CPMG variation (5_SL2+3 RNA; [2]): 4.67%
- LB (5_SL2+3 RNA; [2]): 1.97%
- LOGSY factor (5_SL2+3 RNA; [2]): 5.80%
- CPMG variation (5_SL2+3 RNA; qz2 peak A, RNA:ligand 1:50): 3.62%
- LB (5_SL2+3 RNA; qz2 peak A, RNA:ligand 1:50): 6.29%
- LOGSY factor (5_SL2+3 RNA; qz2 peak A, RNA:ligand 1:50): 1.74%
- CPMG variation (5_SL2+3 RNA; qz2 peak C/D, RNA:ligand 1:50): -2.36%
- LB (5_SL2+3 RNA; qz2 peak C/D, RNA:ligand 1:50): -0.32%
- LOGSY factor (5_SL2+3 RNA; qz2 peak C/D, RNA:ligand 1:50): 3.84%
- CPMG variation (5_SL2+3 RNA; qz2 peak E/B, RNA:ligand 1:50): -11.8%
- LB (5_SL2+3 RNA; qz2 peak E/B, RNA:ligand 1:50): 8.30%
- LOGSY factor (5_SL2+3 RNA; qz2 peak E/B, RNA:ligand 1:50): 4.57%
- CPMG variation (5_SL2+3 RNA; qz2 peak F, RNA:ligand 1:50): -1.52%
- LB (5_SL2+3 RNA; qz2 peak F, RNA:ligand 1:50): -13.0%
- LOGSY factor (5_SL2+3 RNA; qz2 peak F, RNA:ligand 1:50): 2.30%
- CPMG variation (5_SL2+3 RNA; qz2 peak G, RNA:ligand 1:50): -3.33%
- LB (5_SL2+3 RNA; qz2 peak G, RNA:ligand 1:50): 3.46%
- LOGSY factor (5_SL2+3 RNA; qz2 peak G, RNA:ligand 1:50): 1.79%
- CPMG variation (5_SL2+3 RNA; qz2 peak I, RNA:ligand 1:50): 4.89%
- LB (5_SL2+3 RNA; qz2 peak I, RNA:ligand 1:50): 5.64%
- LOGSY factor (5_SL2+3 RNA; qz2 peak I, RNA:ligand 1:50): 6.13%
- CPMG variation (5_SL2+3 RNA; qz2 peak J, RNA:ligand 1:50): 5.88%
- LB (5_SL2+3 RNA; qz2 peak J, RNA:ligand 1:50): -6.27%
- LOGSY factor (5_SL2+3 RNA; qz2 peak J, RNA:ligand 1:50): 7.22%
- CPMG variation (5_SL2+3 RNA; qz2 peak K, RNA:ligand 1:50): 3.01%
- LB (5_SL2+3 RNA; qz2 peak K, RNA:ligand 1:50): 6.54%
- LOGSY factor (5_SL2+3 RNA; qz2 peak K, RNA:ligand 1:50): 4.04%
- EC50 (SARS-CoV-2 USA-WA1/2020): 7.52 µM
- LB (3_SL1+2 RNA; [1]): -2.14%
- LOGSY factor (3_SL1+2 RNA; [1]): 4.45%
- CPMG variation (3_SL1+2 RNA; [2]): 10.7%
- LB (3_SL1+2 RNA; [2]): 13.1%
- LOGSY factor (3_SL1+2 RNA; [2]): 11.5%
- CPMG variation (3_SL1+2 RNA; qz2 peak A, RNA:ligand 1:50): -13.7%
- LB (3_SL1+2 RNA; qz2 peak A, RNA:ligand 1:50): -2.06%
- LOGSY factor (3_SL1+2 RNA; qz2 peak A, RNA:ligand 1:50): 2.25%
- CPMG variation (3_SL1+2 RNA; qz2 peak C/D, RNA:ligand 1:50): -16.2%
- LB (3_SL1+2 RNA; qz2 peak C/D, RNA:ligand 1:50): -4.34%
- LOGSY factor (3_SL1+2 RNA; qz2 peak C/D, RNA:ligand 1:50): 7.61%
- CPMG variation (3_SL1+2 RNA; qz2 peak E/B, RNA:ligand 1:50): -19.5%
- LB (3_SL1+2 RNA; qz2 peak E/B, RNA:ligand 1:50): 7.16%
- LOGSY factor (3_SL1+2 RNA; qz2 peak E/B, RNA:ligand 1:50): 3.76%
- CPMG variation (3_SL1+2 RNA; qz2 peak F, RNA:ligand 1:50): -4.16%
- LB (3_SL1+2 RNA; qz2 peak F, RNA:ligand 1:50): -9.61%
- LOGSY factor (3_SL1+2 RNA; qz2 peak F, RNA:ligand 1:50): 3.95%
- CPMG variation (3_SL1+2 RNA; qz2 peak G, RNA:ligand 1:50): -11.4%
- LB (3_SL1+2 RNA; qz2 peak G, RNA:ligand 1:50): -3.71%
- LOGSY factor (3_SL1+2 RNA; qz2 peak G, RNA:ligand 1:50): 4.70%
- CPMG variation (3_SL1+2 RNA; qz2 peak I, RNA:ligand 1:50): 11.7%
- LB (3_SL1+2 RNA; qz2 peak I, RNA:ligand 1:50): 11.8%
- LOGSY factor (3_SL1+2 RNA; qz2 peak I, RNA:ligand 1:50): 15.1%
- CPMG variation (3_SL1+2 RNA; qz2 peak J, RNA:ligand 1:50): 11.1%
- LB (3_SL1+2 RNA; qz2 peak J, RNA:ligand 1:50): 21.8%
- LOGSY factor (3_SL1+2 RNA; qz2 peak J, RNA:ligand 1:50): 16.0%
- CPMG variation (3_SL1+2 RNA; qz2 peak K, RNA:ligand 1:50): 8.91%
- LB (3_SL1+2 RNA; qz2 peak K, RNA:ligand 1:50): 5.71%
- LOGSY factor (3_SL1+2 RNA; qz2 peak K, RNA:ligand 1:50): 3.38%
- LB (ORF7b RNA; [1]): -7.94%
- LOGSY factor (ORF7b RNA; [1]): 6.35%
- CPMG variation (ORF7b RNA; [2]): 50.7%
- LB (ORF7b RNA; [2]): 26.2%
- LOGSY factor (ORF7b RNA; [2]): 33.7%
- CPMG variation (ORF7b RNA; qz2 peak A, RNA:ligand 1:50): -33.2%
- LB (ORF7b RNA; qz2 peak A, RNA:ligand 1:50): -5.02%
- LOGSY factor (ORF7b RNA; qz2 peak A, RNA:ligand 1:50): 3.94%
- CPMG variation (ORF7b RNA; qz2 peak C/D, RNA:ligand 1:50): -34.1%
- LB (ORF7b RNA; qz2 peak C/D, RNA:ligand 1:50): -10.7%
- LOGSY factor (ORF7b RNA; qz2 peak C/D, RNA:ligand 1:50): 9.65%
- CPMG variation (ORF7b RNA; qz2 peak E/B, RNA:ligand 1:50): -16.1%
- LB (ORF7b RNA; qz2 peak E/B, RNA:ligand 1:50): -1.09%
